The values below come from US20230416245A1, “ADENOSINE ANALOGS FOR THE TREATMENT OF DISEASE” (BIOINTERVENE, INC., priority 2020, published 2023).

Assay [1] deals with T1, human adenosine A3 receptor (Homo sapiens (Human), UniProt P0DMS8). Nature of the assay: Intracellular cAMP levels (inhibition of forskolin-stimulated cAMP production). Format: cell-based. To be noted: for EC50: CHO cells expressing human adenosine A3 receptors, forskolin 10 μM; for CAMP Efficacy (%): maximal response as percentage of the response produced by 100 nM IB-MECA. The text has this:
Example 31: Intracellular cAMP Levels
The method followed is that published in Yates L, Clark J H, Martin T J, James S, Broadley K J, Kidd E J. Radioligand binding and functional responses of ligands for human recombinant adenosine A3 receptors. Auton Autacoid Pharmacol. 2006 April; 26(2):191-200.
Materials and Cell Culture: Adenosine deaminase was obtained from Roche (Lewes, UK). Forskolin was obtained from Sigma-Aldrich (Poole, UK). The sources of other materials are provided above in Example 1. CHO-K1 cells stably transfected with the human adenosine A3 receptor were grown in Dulbecco's modified Eagles medium with nutrient mixture F12 containing NaHCO3 and Glutamax. Media was supplemented with 10% fetal calf serum, geneticin (G418; 0.67 mg/mL), hygromycin (500 μg/mL) and adenosine deaminase (1 U/mL). Cells were maintained at 37° C. with 5% CO2 in air.
cAMP Measurements: Intracellular cAMP production was measured directly using a non-acetylation cAMP enzyme immunoassay (Amersham Biosciences, Little Chalfont, UK). Cultured CHO cells expressing human adenosine A3 receptors were allowed to plate overnight in 96-well plates in culture medium containing adenosine deaminase. Twenty-four hours later, they were incubated with adenosine analogues or compounds of the invention (0.1 nM-1 μM) for 5 min at 37° C., followed by incubation with forskolin (10 μM) for 10 min. The cells were then lysed with 200 μL of lysis reagent 1 provided with the kit for 10 min to release intracellular cAMP. Aliquots of the supernatants were then transferred to a 96-well microtitre plate coated with donkey anti-rabbit IgG; 100-μL cAMP standards (12.5-3200 fmol/well) were also added to the microtitre plate; 100 μL of rabbit anti-cAMP antibody was added to all wells and incubated at 2-5° C. for 2 h. The antiserum was made up in lysis reagent 2, which sequesters the key component in lysis reagent 1 and ensures that cAMP is free for subsequent analysis. Then 50 μL of cAMP peroxidase conjugate was added to all wells and left to incubate for 60 min at 2-5° C. to allow competition for the antibody between the un-labelled and horse radish peroxidase (HRP)-labelled cAMP. Wells were then washed with buffer and 150 μL of enzyme substrate containing 3,3′,5,5′-tetramethylbenzidine/hydrogen peroxide in 20% (v/v) dimethylformamide was added to each well and left to incubate for 60 min on a Titramax 100 microtitre plate shaker (Heidolph Instruments, Schwabach, Germany) at room temperature for color development. The reaction was stopped by the addition of 100 μL of 1 M sulfuric acid and the optical density (OD) read at 450 nm on a spectrophotometric MRX microplate reader (Dynex Technologies, Chantilly, VA, USA).
Analyses: Each sample/standard was analyzed in duplicate and the resulting OD values averaged. The percent bound (B/Bo) for each standard and sample was calculated using the following relationship: […]
where B is the specific OD for standard/sample and Bo is the specific OD for the zero standard. A standard curve was generated by plotting % B/Bo as a function of the log fmol cAMP standard per well. The fmol per well value for cAMP in each sample was then read from the graph. The results are expressed as a percent of control agonist response: (measured response/control response)*100 in the presence of the compounds of the invention. Concentration-response curves for inhibition of cAMP production were constructed for all compounds of the invention and reference compounds. The EC50 values (concentration producing a half-maximal response) were determined by non-linear regression analysis of the concentration-response curves generated with mean replicate values using Hill equation curve fitting, according to the equation:
where Y=response, A=left asymptote of the curve, D=right asymptote of the curve, C=compound concentration, and C50=EC50, and nH=slope factor. […]
(In general: Changes in cAMP serve as a functional read-out for many G protein-coupled receptors.)

In assay [2] the target is T1, human adenosine A3 receptor. Nature of the assay: Adenosine receptor binding assay ([125I]-AB-MECA competition). To be noted: inhibition of 0.15 nM [125I]-AB-MECA binding, membranes of cells expressing human A3 receptor; read-out: hA3 Ki: Ki. An excerpt:
Example 30: Adenosine Receptor Binding Assay
Materials and Reference Compounds: [^125I]-AB-MECA and [^3H]CCPA are both obtained from Amersham Biosciences (Little Chalfont, UK). IB-MECA are obtained from Tocris (Bristol, UK) and N6-cyclopentyl adenosine (CPA) is obtained from Sigma-Alrich (Poole, UK). Cell culture media, G418 and hygromycin are obtained from Invitrogen (Paisley, UK). Fetal calf serum is obtained from Perbio Science (Cheshire, UK). All other reagents are obtained from Fisher Chemicals (Loughborough, UK).
The method followed is that of Yates L, Clark J H, Martin T J, James S, Broadley K J, Kidd E J. Radioligand binding and functional responses of ligands for human recombinant adenosine A3 receptors. Auton Autacoid Pharmacol. 2006; 26(2):191-200. Cells stably transfected with the human adenosine A3 or A1 receptor are grown in Dulbecco's modified Eagles medium with nutrient mixture F12 containing NaHCO3 and Glutamax. Media is supplemented with 10% fetal calf serum, geneticin (G418; 0.67 mg/mL), hygromycin (500 μg/mL) and adenosine deaminase (1 U/mL). Cells are maintained at 37° C. with 5% CO2 in air. Cells are harvested and homogenized in ice-cold Tris buffer [50 mM Tris, 150 mM NaCl, 1 mM ethylenediaminetetraacetic acid (EDTA), pH 7.4] supplemented with the peptidase inhibitors, 4-(2-aminoethyl)benzenesulfonylfluoride (1 mM) and bacitracin (0.1 mg/mL), using a Polytron homogenizer (3×10 s bursts). The homogenate was spun for 10 min (4° C.) at 500 g. The supernatant is retained and the pellet is re-suspended in the buffer, homogenized and spun as above. The combined supernatants are centrifuged for 15 min (4° C.) at 48,000 g. The resultant pellet is re-suspended in the buffer and centrifuged for a second time at 48,000 g. The membrane pellet is then suspended in Tris buffer containing no peptidase inhibitors or adenosine deaminase and stored at −80° C. at a protein concentration of 1 mg/mL.
Binding Assays: Radioligand-binding assays were performed using the adenosine A3 receptor agonist [^125I]-AB-MECA and the A1 receptor agonist [^3H]CCPA. Binding assays were conducted in a total volume of 100 μL containing a 50 mM Tris, pH 7.4 buffer with or without 10 mM MgCl2, 20 μg membranes and either 0.15 nM [^125I]-AB-MECA (for the A3 receptor) or 1 nM [^3H]CCPA (for the A1 receptor). Assays were conducted at room temperature for 60 min (A1 receptor) or 120 min (A3 receptor) and terminated by the addition of 2 ml of ice-cold wash buffer (50 mM Tris, pH 7.4 with or without 10 mM MgCl2) and rapid filtration over 0.03% polyethylenimine-treated Whatman GF/C filters using a Brandel cell harvester (Semat International Ltd., St Albans, UK). Filters were then washed three times with 2 ml of ice-cold buffer. The filter-bound radioactivity were counted using a Compugamma counter (LKB Wallac, Turku, Finland). Competition experiments were performed to investigate the ability of reference compounds and embodiments of the invention to inhibit [^125I]-AB-MECA binding. Non-specific binding were determined using the respective compound at its highest concentration.
Data Analysis: The Kd and Bmax values for binding data were calculated based upon the molar amounts of bound and free [^125I]-AB-MECA. […] IC50 and Ki values and Hill slopes for inhibition of the radioligand binding by the compounds of the invention were calculated from the ligand competition curves using the Excel spreadsheet and the Kd value calculated for either [^125I]-AB-MECA or [^3H]CCPA. The results were expressed as a percent of control specific binding and as a percent inhibition of control specific binding obtained in the presence of the compounds of the invention. The IC50 values (concentration causing a half-maximal inhibition of control specific binding) and Hill coefficients (nH) were determined by non-linear regression analysis of the competition curves generated with mean replicate values using Hill equation curve fitting: […]

T1 sequence (P0DMS8 whole entry): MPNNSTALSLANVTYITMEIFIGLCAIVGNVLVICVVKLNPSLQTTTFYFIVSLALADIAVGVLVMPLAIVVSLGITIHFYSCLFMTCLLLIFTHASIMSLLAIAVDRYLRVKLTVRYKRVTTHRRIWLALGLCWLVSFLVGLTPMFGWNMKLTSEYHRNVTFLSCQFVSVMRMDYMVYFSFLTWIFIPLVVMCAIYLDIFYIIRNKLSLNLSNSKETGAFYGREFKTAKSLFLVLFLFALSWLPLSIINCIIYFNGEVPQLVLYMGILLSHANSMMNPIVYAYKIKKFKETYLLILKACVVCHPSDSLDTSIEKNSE

Turning to `CNC(=O)C12C[C@@H]1[C@@H](n1cnc3c(NCC4CC4)cc(Cl)nc31)[C@H](O)[C@@H]2O` (stereo in doubt) [Compound 63, (1S,2R,3S,4R,5S)-4-(5-chloro-7-((cyclopropylmethyl)amino)-3H-imidazo[4,5-b]pyridin-3-yl)-2,3-dihydroxy-N-methylbicyclo[3.1.0]hexane-1-carboxamide], in assay [1], the EC50 (as a rule, the midpoint of the concentration-response curve) came to 0.22 nM and the “CAMP Efficacy (%)” value is listed as 105.1%. In addition, the Ki (commonly a dissociation constant, usually derived from enzyme kinetics or from competition with a known ligand) in assay [2] was 0.72 nM.

In the case of `CCNc1c(C#N)c(Cl)nc2c1ncn2[C@H]1[C@H](O)[C@H](O)[C@@H]2C[C@@H]21` [Compound 93, 5-chloro-3-((1S,2R,3S,4R,5R)-3,4-dihydroxybicyclo[3.1.0]hexan-2-yl)-7-(ethylamino)-3H-imidazo[4,5-b]pyridine-6-carbonitrile], in assay [1], the EC50 is 15.2 nM and the “CAMP Efficacy (%)” value was 52%. Moreover, the Ki in assay [2] came to 2.59 nM.

Take `CCNc1cc(C#N)nc2c1ncn2[C@H]1[C@H](O)[C@H](O)[C@]2(C(=O)NC)C[C@H]12` [Compound 70, (1S,2R,3S,4R,5S)-4-(5-cyano-7-(ethylamino)-3H-imidazo[4,5-b]pyridin-3-yl)-2,3-dihydroxy-N-methylbicyclo[3.1.0]hexane-1-carboxamide]: in assay [1], the midpoint of the response, the EC50, lay at 0.1 nM and the “CAMP Efficacy (%)” value amounted to 104.76%. Further, the Ki in assay [2] was 0.133 nM.

Take `O[C@@H]1[C@H](O)[C@@H]2C[C@@H]2[C@H]1n1cnc2c(NCc3cc(Cl)ccc3Cl)cc(Cl)nc21` [Compound 68, (1R,2R,3S,4R,5S)-4-(5-chloro-7-((2,5-dichlorobenzyl)amino)-3H-imidazo[4,5-b]pyridin-3-yl)bicyclo[3.1.0]hexane-2,3-dio]: in assay [1], the EC50 stood at 1.33 nM and the “CAMP Efficacy (%)” value is listed as 38.22%. Also, the Ki in assay [2] is 4.75 nM.

For `CNC(=O)[C@@]12C[C@@H]1[C@@H](n1cnc3c(NCc4cc(Cl)ccc4OCc4cc(C)no4)cc(Cl)nc31)[C@H](O)[C@@H]2O` [Compound 62, (1S,2R,3S,4R,5S)-4-(5-chloro-7-((5-chloro-2-((3-methylisoxazol-5-yl)methoxy)benzyl)amino)-3H-imidazo[4,5-b]pyridin-3-yl)-2,3-dihydroxy-N-methylbicyclo[3.1.0]hexane-1-carboxamide], in assay [1], a half-maximal effect (EC50) was put at 0.31 nM and the “CAMP Efficacy (%)” value came to 103.26%. Further, the Ki in assay [2] stood at 0.33 nM.
